{
  "source": "patent US20070254938A1",
  "about": "“Preventive or Therapeutic Agent for Vascular Intimal Proliferative Disease” (priority 2004, published 2007)",
  "key": {"[1]": {"tested_on": "intimal hyperplasia of the common carotid artery", "assay": "Intimal hyperplasia of a blood vessel caused by scraping endothelium of common carotid artery in alloxan-induced diabetic rabbits", "format": "in vivo, Japanese white rabbits", "settings": "3 mg/kg orally once a day for 6 weeks; arteries removed 4 weeks after scraping endothelium; compared to the control group; FIG. 1", "description": "Effect on Intimal Hyperplasia of a Blood vessel Caused by Scraping Endothelium of Common Carotid Artery in Rabbits\nDiabetic model animals made by administrating alloxan (50 mg/kg) into Japanese white rabbits (body weight: 2.0 to 3.3 kg) were divided into 2 groups; one was a mitiglinide-treated group (n=5) in which mitiglinide calcium hydrate (3 mg/kg) suspended in 0.5% carboxymethylcellulose was administered orally once a day before feeding for 6 weeks from the next day of alloxan-administration to the day before experimental termination, and the other was the control group (n=4) in which 0.5% carboxymethylcellulose was administered in the same way. Two weeks after the alloxan-administration, the endothelium of the right common carotid artery was scraped using a balloon catheter, and then, the incision on the vessel wall was sutured with care not to cause stenosis. […] Four (4) weeks after the operation of scraping endothelium of a blood vessel, the bilateral common carotid arteries were removed, and the intimal, medial and luminal areas of the sections of the arteries were measured using a morphometric analyzer. Fasting plasma glucose levels were measured 2 weeks after the alloxan-administration (on the day of scraping the endothelium) and 6 weeks after the alloxan-administration (on the day of removing the arteries."}, "[2]": {"assay": "Fasting plasma glucose levels in alloxan-induced diabetic rabbits", "format": "in vivo, Japanese white rabbits", "settings": "3 mg/kg orally once a day", "description": "Diabetic model animals made by administrating alloxan (50 mg/kg) into Japanese white rabbits (body weight: 2.0 to 3.3 kg) were divided into 2 groups; one was a mitiglinide-treated group (n=5) in which mitiglinide calcium hydrate (3 mg/kg) suspended in 0.5% carboxymethylcellulose was administered orally once a day before feeding for 6 weeks from the next day of alloxan-administration to the day before experimental termination, and the other was the control group (n=4) in which 0.5% carboxymethylcellulose was administered in the same way. Two weeks after the alloxan-administration, the endothelium of the right common carotid artery was scraped using a balloon catheter, and then, the incision on the vessel wall was sutured with care not to cause stenosis. The left common carotid artery was used as a side of Sham-operation (the normal group). Four (4) weeks after the operation of scraping endothelium of a blood vessel, the bilateral common carotid arteries were removed, and the intimal, medial and luminal areas of the sections of the arteries were measured using a morphometric analyzer. Fasting plasma glucose levels were measured 2 weeks after the alloxan-administration (on the day of scraping the endothelium) and 6 weeks after the alloxan-administration (on the day of removing the arteries."}},
  "data": [
    {"smiles": "O=C(O)[C@H](CC(=O)N1C[C@H]2CCCC[C@H]2C1)Cc1ccccc1", "note": "[mitiglinide calcium hydrate, bis{(2S)-2-benzyl-3-(cis-hexahydro-2-isoindolinylcarbonyl)-propionic acid}calcium dihydrate]", "values": [
      {"measurement": "inhibitory effect on intimal hyperplasia (ratio of intimal area to medial area)", "setting": "[1]", "result": "significant inhibitory effect"},
      {"measurement": "influence on fasting plasma glucose level", "setting": "[2]; 2 weeks after alloxan-administration, FIG. 2", "result": "no influence"},
      {"measurement": "influence on fasting plasma glucose level", "setting": "[2]; 6 weeks after alloxan-administration, FIG. 3", "result": "no influence"}
    ]}
  ]
}
